Laboratory results reported in patent US20250290117A1, “MOLECULAR PHENOTYPIC ANTIMICROBIAL SUSCEPTIBILITY TESTING” (priority 2024, published 2025).

Experiments:
E. coli = experiment: Molecular phenotypic antimicrobial susceptibility test with direct PCR (no extraction DNA purification step); type: cell-based, Escherichia coli; settings: specimen with <10,000 cells/mL, direct PCR after 16 hours of incubation
Protocol: Detection of Molecular Phenotypic Antimicrobial Susceptibility. Disclosed herein are the methods for the detection of phenotypic antimicrobial susceptibility via molecular methods. The present invention describes how a specimen 100 with a known microbial load is incubated and then exposed to a panel of antimicrobial agents to determine sensitivity (prevention of growth) or resistance (allowance of growth) to the specific antimicrobial agents tested utilizing molecular methods.
Sample Collection. Specimens 100 are collected from patients using sterile collection processes that are employed in routine clinical care. Specimens are transported to the testing facility in boric acid preservative. Specimens 100 are subsequently divided into a first sample 104 and a second sample 108.
Preparation of the Specimens for Testing. The specimens 100 are put through a pathogen identification process using PCR technology (e.g., using the first sample 104). The process for pathogen isolation includes steps of harvesting the pathogen (e.g., via centrifugation), isolating pathogen DNA via a DNA isolation and/or purification kit, and performing PCR on the pathogen DNA via PCR components (e.g., primers, enzymes, buffers) as would be known to the skilled artisan. Simultaneously, an additional aliquot of the same specimen (e.g., the second sample 108) is placed with liquid culture media and incubated for 4-6 hours. This aliquot is used for antimicrobial susceptibility testing if indicated based on the pathogen detection results. After pathogen identification is completed and if more than 10,000 cells/mL of bacteria (e.g., eligible bacteria) are detected in the source specimen, the second sample 108 then enters the antimicrobial susceptibility phase of testing. Specimens 100 with lower pathogen loads could also be utilized in the antibiotic susceptibility phase of testing with or without a longer incubation period.
Preparation of Antimicrobial Susceptibility Testing Plates. Antimicrobial solutions are prepared at known concentrations. The specific antimicrobials and their concentrations are selected based on the pathogen of interest and the described antimicrobial resistance breakpoints for that specimen pathogen and antimicrobial combination. These antimicrobials have been selected based on those commonly utilized by healthcare providers in routine clinical care for the specific type of suspected infection. The number and types of antimicrobials utilized can be customized based on the infection source, pathogen detected, patient-specific factors such as allergies or other health conditions (e.g., chronic kidney disease or concurrent medication use), or healthcare provider preferences such as antimicrobial availability or cost.
The antimicrobial solutions are prepared in liquid culture media (such as Muller Hinton Broth) to achieve the desired antimicrobial concentration and are then stored at −80° C. until use. For a given specimen, each antimicrobial is tested at a single or multiple antimicrobial concentration(s) which is its established breakpoints for sensitivity. The antimicrobial solutions are prepared and plated out for each specific pathogen. This allows ease of use on the day of testing after defrosting the plate 112. Table 1, which illustrates the results of molecular phenotypic antimicrobial susceptibility testing when more than one organism is present in the source specimen, provides an example of an antimicrobial plate 112 prepared for this purpose. Of note, control wells containing only culture media are present on all plates 112. This allows for evaluation of pathogen load when no antimicrobial is present.
Specimen Exposure to Antimicrobial Agents. The 1 mL aliquot of the specimen 100 previously mixed with culture media and incubated is obtained. Using optical density measurements as a guide, the specimen 100 is diluted to 0.5 McFarland. […]

pathogen of the specimen [1] = experiment: Molecular phenotypic antimicrobial susceptibility test with direct PCR at various incubation timepoints (Table 7); type: cell-based
Protocol: Detection of Molecular Phenotypic Antimicrobial Susceptibility. Disclosed herein are the methods for the detection of phenotypic antimicrobial susceptibility via molecular methods. The present invention describes how a specimen 100 with a known microbial load is incubated and then exposed to a panel of antimicrobial agents to determine sensitivity (prevention of growth) or resistance (allowance of growth) to the specific antimicrobial agents tested utilizing molecular methods. Sample Collection. Specimens 100 are collected from patients using sterile collection processes that are employed in routine clinical care. Specimens are transported to the testing facility in boric acid preservative. […] The process for pathogen isolation includes steps of harvesting the pathogen (e.g., via centrifugation), isolating pathogen DNA via a DNA isolation and/or purification kit, and performing PCR on the pathogen DNA via PCR components (e.g., primers, enzymes, buffers) as would be known to the skilled artisan. […] This aliquot is used for antimicrobial susceptibility testing if indicated based on the pathogen detection results. […] Specimens 100 with lower pathogen loads could also be utilized in the antibiotic susceptibility phase of testing with or without a longer incubation period. […] Antimicrobial solutions are prepared at known concentrations. The specific antimicrobials and their concentrations are selected based on the pathogen of interest and the described antimicrobial resistance breakpoints for that specimen pathogen and antimicrobial combination. These antimicrobials have been selected based on those commonly utilized by healthcare providers in routine clinical care for the specific type of suspected infection. The number and types of antimicrobials utilized can be customized based on the infection source, pathogen detected, patient-specific factors such as allergies or other health conditions (e.g., chronic kidney disease or concurrent medication use), or healthcare provider preferences such as antimicrobial availability or cost. The antimicrobial solutions are prepared in liquid culture media (such as Muller Hinton Broth) to achieve the desired antimicrobial concentration and are then stored at −80° C. until use. For a given specimen, each antimicrobial is tested at a single or multiple antimicrobial concentration(s) which is its established breakpoints for sensitivity. The antimicrobial solutions are prepared and plated out for each specific pathogen. […] This allows for evaluation of pathogen load when no antimicrobial is present. Specimen Exposure to Antimicrobial Agents. The 1 mL aliquot of the specimen 100 previously mixed with culture media and incubated is obtained. Using optical density measurements as a guide, the specimen 100 is diluted to 0.5 McFarland. […] Antimicrobial exposure plates are typically placed into an incubator for 12-16 hours. […] Nucleic Acid Amplification of Antimicrobial Agent Exposed Pathogens. The antimicrobial exposure plate is removed after the period of incubation. The specimen then undergoes a purification or lysis step. For example, the specimen may undergo a purification step (e.g., magnetic bead-based or other separation protocol to isolate genetic material). In another example, the specimen may undergo a cell lysis step. For example, buffer (e.g., lysis buffer) may be added and incubated in the thermal cycler for preparation for direct PCR. Next, the specimen may undergo a polymerase chain reaction (PCR) testing protocol, whereby a semi-quantitative PCR method is utilized. This may be completed either with or without a specific extraction protocol step. The pathogens can be individually targeted and detected, or a universal genetic sequence can be utilized to detect the antimicrobial susceptibility of the specimen as a whole. The control wells are utilized as a threshold for determining antimicrobial sensitivity or resistance. […] Antimicrobial Susceptibility Result Interpretation.

pathogen of the specimen [2] = experiment: Traditional culture-based antimicrobial susceptibility test (comparison of Table 7); type: cell-based; settings: E. coli isolate 1189
Protocol: Table 7 illustrates the results of an example antimicrobial agent susceptibility test of the current application versus a traditional culture-based antimicrobial agent susceptibility test at multiple incubation timepoints, in accordance with one or more embodiments of the disclosure. These specimens were tested with direct PCR (e.g., no extraction DNA purification step prior to PCR). […] Result Reporting to Healthcare Providers. The results from the antimicrobial exposure are reported to the ordering healthcare provider. This information can be utilized by the healthcare provider when selecting an antimicrobial regimen for their individual patient based on these individual specimen results and patient specific factors. […] The current standard of care for antimicrobial susceptibility testing involves the growth, isolation, and exposure of pathogens to antimicrobials. This traditional culture and sensitivity process can take multiple days to obtain results, limiting the ability of healthcare providers to receive timely results to make actionable changes in patient care or management. Healthcare providers desire a method to obtain antimicrobial susceptibility results with quicker turn-around-time. This application discloses a molecular-based phenotypic antimicrobial susceptibility method which involves pathogen exposure to a panel of antimicrobial agents at their specified minimum inhibitory concentration breakpoints for sensitivity. This method allows for more timely antimicrobial susceptibility results.

Molecule | Molecular Antimicrobial Susceptibility Result (E. coli; E. coli #1 - WDCM 00090 - 6.2×E3) | Ct at Sensitive Breakpoint (E. coli; E. coli #1 - WDCM 00090 - 6.2×E3, Ct at control 13.787) | Molecular Antimicrobial Susceptibility Result (E. coli; E. coli #2 - WDCM 00090 - 6.2×E3) | Ct at Sensitive Breakpoint (E. coli; E. coli #2 - WDCM 00090 - 6.2×E3, Ct at control 13.46) | Molecular Antimicrobial Susceptibility Result (pathogen of the specimen [1]; E. coli isolate 1189, antibiotic incubation time 4 hours) | Ct at Sensitive Breakpoint (pathogen of the specimen [1]; E. coli isolate 1189, antibiotic incubation time 4 hours, control average Ct […]) | Molecular Antimicrobial Susceptibility Result (pathogen of the specimen [1]; E. coli isolate 1189, antibiotic incubation time 6 hours) | Ct at Sensitive Breakpoint (pathogen of the specimen [1]; E. coli isolate 1189, antibiotic incubation time 6 hours, control average Ct 16.992) | Molecular Antimicrobial Susceptibility Result (pathogen of the specimen [1]; E. coli isolate 1189, antibiotic incubation time 8 hours) | Ct at Sensitive Breakpoint (pathogen of the specimen [1]; E. coli isolate 1189, antibiotic incubation time 8 hours, control average Ct […]) | Molecular Antimicrobial Susceptibility Result (pathogen of the specimen [1]; E. coli isolate 1189, antibiotic incubation time 10 hours) | Ct at Sensitive Breakpoint (pathogen of the specimen [1]; E. coli isolate 1189, antibiotic incubation time 10 hours, control average Ct 15.995) | Molecular Antimicrobial Susceptibility Result (pathogen of the specimen [1]; E. coli isolate 1189, antibiotic incubation time 14 hours) | Ct at Sensitive Breakpoint (pathogen of the specimen [1]; E. coli isolate 1189, antibiotic incubation time 14 hours, control average Ct 15.826) | Molecular Antimicrobial Susceptibility Result (pathogen of the specimen [1]; E. coli isolate 1189, antibiotic incubation time 16 hours) | Ct at Sensitive Breakpoint (pathogen of the specimen [1]; E. coli isolate 1189, antibiotic incubation time 16 hours, control average Ct 14.880) | Traditional Culture Result (pathogen of the specimen [2])
C[C@H]1c2cccc(O)c2C(=O)C2=C(O)[C@]3(O)C(=O)C(C(N)=O)=C(O)[C@@H](N(C)C)[C@@H]3[C@@H](O)[C@@H]21 [Doxycycline] | Sensitive (Antimicrobial wells with pathogen load detected below the control wells (typically >2 cycle thresholds later) may be reported as Sensitive) | 25.83 | Sensitive (Antimicrobial wells with pathogen load detected below the control wells (typically >2 cycle thresholds later) may be reported as Sensitive) | 27.02 | – | – | – | – | – | – | – | – | – | – | – | – | –
Amoxicillin/Clavulanate | – | – | – | – | Resistant | 16.799 | Resistant | 17.105 | Resistant | 17.430 | Resistant | 15.606 | Resistant | 14.226 | Resistant | 14.825 | Resistant
